# Measurements reported in US20250308265A1, “METHODS AND SYSTEMS FOR CHARACTERIZING MORPHODYNAMIC PROFILES OF OBJECTS” (The Chancellor, Masters and Scholars of the University of …, priority 2022, published 2025).
# Read-outs that look alike come from different tables or passages of the source.
# Legend:
# [1] = tested on: normal patient-derived duodenal organoids; assay: Chemotherapy drug toxicity screen with human duodenum organoids, label-free timelapse imaging analysed by SPOT; settings: for phenotype cluster frequency over time (stacked barplots): 5 days
# Procedure: Organoids were plated onto 96 well plates as follows. Using ice-cold PBS, the organoids were retrieved from the Matrigel and briefly microcentrifuged. To aid organoid dissociation, the pellet was vigorously resuspended in Trypsin and incubated at 37° C. for 10 min to ensure a high degree of dissociation. The organoid fragments were then briefly microcentrifuged and resuspended in 200 μL of Matrigel. The resuspended organoids were then kept on ice to prevent gelation of the Matrigel. Then, 2 μL of the organoid suspension was seeded inside each well. During this process, the organoid-Matrigel mix was resuspended every 12 wells to ensure an even mix. The Matrigel was allowed to gelate at room temperature for 5 min. Once the Matrigel solidified, 100 μL of human organoid medium, pre-warmed at 37° C. to prevent the detachment of the Matrigel, was then overlaid and replaced every 2 days. Once the organoids had grown for 6 days inside the 96-well plate, the medium was removed by inversion and washed with pre-warmed PBS at 37° C. After removing the PBS by inversion, the wells were filled with 100 μL of human organoid medium (HOM) with a titration of chemotherapy drugs. […] These concentrations were based on the previously published screening concentrations (van de Wetering, M. et al. Cell 161, 933-945 (2015)). All drugs were solubilized and diluted with DMSO. The different conditions were filmed on a Nikon microscope for 120 h at a frequency of 1 image per hour with a 2× objective.
# Human duodenum organoids were harvested and dissociated into single cells following the passaging procedure described above. Cell pellets were resuspended in 500 μL of PBS. Cells were filtered through the cell strainer (70 μm) and counted with the automated cell counter (BIO-RAD). The appropriate cell dilutions were made in GFR Matrigel. Then, the cells were seeded in a pre-warmed 96-well black tissue culture-treated (TC-treated) sterile microplate (PerkinElmer), and plates were incubated for 10 min in a cell culture incubator at 37° C. and 5% CO2 to solidify the Matrigel. Human duodenum organoid culture media (HOM, Table 9) was added to each well (200 μL) and refreshed every other day. For WNT experiments, before performing timelapse video collection, the HOM media was changed to ENR (EGF, Noggin, R-spondin only) for the ENR imaging conditions. Specifically, group HOM organoids were cultured in HOM culture medium for 14 days. Group ENR+WNT3A (day 3) organoids were under ENR treatment for 3 days and then ENR+Wnt3A for 11 days. Group ENR+WNT3A (day 6) organoids were under ENR treatment for 6 days and then ENR+Wnt3a for the next 8 days. Group ENR+Wnt3A (day 9) organoids were under ENR treatment for 9 days and then under ENR+Wnt3A treatment for 5 days. Group ENR organoids were under ENR treatment for 14 days. All images were acquired using a Nikon TE 2000-E Eclipse inverted microscope, with a 10×/0.3 NA Plan Fluor Ph1 objective. The system was maintained at 37° C. in the presence of 5% CO2. Z-stack images 1000 μm in depth were acquired at 100 μm intervals (11 steps per acquisition) approximately every 60 min for 5 days (chemotherapy drug screen) and 14 days (WNT addition experiments).
# Multicellular structures, such as organoids, have emerged as attractive experimental models. Further, the complex spatiotemporal dynamics of organoids are underlined by the cells' genetic makeup, cell/cell interactions, and the constituent cells' responses to environmental perturbations. SPOT's potential was therefore tested to measure the spatiotemporal dynamics of organoids using normal patient-derived duodenal organoids grown in a 96-well plate and imaged label-free. The entire SPOT workflow was applied to measure organoid response to eight chemotherapy drugs at three different concentrations. 60-100 organoids were seeded per well, and all organoids were filmed every hour for 5 days (stage 1).
# [2] = tested on: human duodenum organoids; assay: Delayed WNT3A restoration to ENR-cultured human duodenum organoids, timelapse imaging analysed by SPOT; format: cell-based
# Procedure: Cell pellets were resuspended in 500 μL of PBS. […] The appropriate cell dilutions were made in GFR Matrigel.
# The observed flattening phenotype is visually reminiscent of Apc^min/+ murine colon organoids. However, the role of WNT on the morphodynamic changes of human organoids was unexpected. Whereas Apc^min/+ organoids should have high WNT signaling, ENR medium lacks WNT. To test the direct impact of WNT on the morphological changes of human duodenum organoids, WNT3A, a potent inducer of WNT signaling, was added to the ENR medium at day 3, 6, and 9 after the initial transfer of human duodenum organoids to ENR. […] To quantify the impact of WNT3A restoration, all organoids were grown in 96-well plates for 7 days, and live-cell images were captured every hour for the next 14 days (FIG. 5c). The spatiotemporal dynamics of a library of >500,000 segmented organoid instances over all timepoints and videos were analyzed by SPOT in the same manner as mouse colon organoids, and the organoids were subsequently classified into one of 7 phenotype clusters. Quantifying the expression of representative SAM features, as expected, organoids cultured in HOM were large and spherical, shown by enriched distribution of yellow cluster 6.
# [3] = tested on: human duodenum organoids; assay: scRNA-seq of human duodenum organoids (HOM, ENR, ENR+WNT3A); format: cell-based; settings: restoring WNT3A
# Excerpt: Organoids were individually seeded onto a 24-well plate and cultured for 7 days before treatment as described above.
# For scRNA-seq, Group HOM was collected after the initial 7 days' culture before further treatment, that is day 0 of the timelapse acquisition. […] Group ENR organoids were under ENR treatment for a total of 3, 6, and 9 days, respectively, then collected. After being harvested, the organoids were processed in the same manner as for murine organoids.
# To understand the molecular basis of WNT depletion-induced morphodynamic changes, scRNA-seq was also performed on the human duodenum organoids cultured under conditions and timescales identical to those used for the SPOT analysis. In total, 8763 single cell transcriptomes were generated. […] Examining the expression of WNT, YAP targets, fetal and RSC signatures in organoid-derived cells as a function of the time of WNT3A rescue, it is evident that there is an inverse association between high WNT and high YAP target-expressing cells. Also, the kinetics of RSC signature expression levels coincide with the extent of phenotypic changes detected by SPOT. Thus, WNT-deprived ENR medium induces RSCs that lead to the development of morphologically irregular and flattened organoids.
molecule,measurement,setting,value
"CC(=O)O[C@@]12CO[C@@H]1C[C@H](O)[C@@]1(C)C(=O)[C@H](O)C3=C(C)[C@@H](OC(=O)[C@H](O)[C@@H](NC(=O)OC(C)(C)C)c4ccccc4)C[C@@](O)([C@@H](OC(=O)c4ccccc4)[C@H]21)C3(C)C [docetaxel, Docetaxel]",HMM cluster transition pattern,[1],conserved cluster transition pattern
"COc1cccc2c1C(=O)c1c(O)c3c(c(O)c1C2=O)C[C@@](O)(C(=O)CO)C[C@@H]3O[C@H]1C[C@H](N)[C@@H](O)[C@H](C)O1 [epirubicin, Epirubicin]",HMM cluster transition pattern,[1],conserved cluster transition pattern
same,temporal phenotype trajectory,[1],opposing trajectory from top to bottom
"CCc1c2c(nc3ccc(OC(=O)N4CCC(N5CCCCC5)CC4)cc13)-c1cc3c(c(=O)n1C2)COC(=O)[C@]3(O)CC [irinotecan, Irinotecan]",HMM cluster transition pattern,[1],loses the autoregulatory loop of cluster 2
same,temporal phenotype trajectory,[1],opposing trajectory from top to bottom
"COc1cc2ncnc(Nc3ccc(F)c(Cl)c3)c2cc1OCCCN1CCOCC1 [gefitinib, Gefitinib]",relative toxicity,[1],lower relative toxicity
same,temporal phenotype trajectory,[1],milder toxicity
same,phenotype cluster frequency over time (stacked barplots),[1],approximately maintain the fraction of the cluster 2 large spherical organoid phenotype
O=c1[nH]cc(F)c(=O)[nH]1 [5-fluorouracil],relative toxicity,[1],lower relative toxicity
same,temporal phenotype trajectory,[1],milder toxicity
same,phenotype cluster frequency over time (stacked barplots),[1],approximately maintain the fraction of the cluster 2 large spherical organoid phenotype
"O=C1[O][Pt]2([NH][C@@H]3CCCC[C@H]3[NH]2)[O]C1=O [oxaliplatin, Oxaliplatin]",impact on organoid morphology (UMAP density heatmaps),"[1]; all three concentrations, highest: cisplatin 6, oxaliplatin 20, mitomycin C 0.03, 5-fluorouracil 20, gefitinib 0.5, irinotecan 5, docetaxel 0.0125, epirubicin 4.5 μM, vs DMSO control",limited impact on organoid morphology
same,temporal phenotype trajectory,[1]; compared with DMSO trajectory,Predominant organoid growth
same,relative toxicity,"[1]; final timepoints, maximum concentration, 5 days filming",lower relative toxicity
"WNT3A: a potent inducer of WNT signaling, added to the ENR medium (protein, UniProt P56704 19-352, looked up) Protein Wnt-3a: SYPIWWSLAVGPQYSSLGSQPILCASIPGLVPKQLRFCRNYVEIMPSVAEGIKIGIQECQHQFRGRRWNCTTVHDSLAIFGPVLDKATRESAFVHAIASAGVAFAVTRSCAEGTAAICGCSSRHQGSPGKGWKWGGCSEDIEFGGMVSREFADARENRPDARSAMNRHNNEAGRQAIASHMHLKCKCHGLSGSCEVKTCWWSQPDFRAIGDFLKDKYDSASEMVVEKHRESRGWVETLRPRYTYFKVPTERDLVYYEASPNFCEPNPETGSFGTRDRTCNVSSHGIDGCDLLCCGRGHNARAERRREKCRCVFHWCCYVSCQECTRVYDVHTCK",impact on phenotype rescue (proportion of irregularly shaped to spherical organoids),[2]; WNT3A restored on day 3,biggest impact
same,organoid growth (cluster 6),[2]; WNT3A restored on day 3,increased
same,percentage of irregularly shaped organoids (cluster 7),[2]; WNT3A restored on day 3,substantially reduced
same,temporal phenotype trajectory,[2]; WNT3A restored on day 3,close overlap between day 3 WNT3A restoration and HOM conditions
same,HMM cluster transition graph,[2]; WNT3A restored on day 6,best reflects the ENR-only condition
same,impact on phenotype rescue (proportion of irregularly shaped to spherical organoids),[2]; WNT3A restored on day 6,little impact
same,HMM cluster transition graph,[2]; WNT3A restored on day 9,"introduces two new transitions, cluster 5-to-3 and cluster 4-to-2"
same,impact on phenotype rescue (proportion of irregularly shaped to spherical organoids),[2]; WNT3A restored on day 9,minimal impact
same,formation of morphologically flattened irregular organoids,[2]; WNT3A restored to ENR medium at day 3,largely prevented
same,induction of RSCs leading to morphologically irregular and flattened organoids in WNT-deprived ENR medium,[3],can be prevented
